{"source": "ChEMBL document CHEMBL5550186", "about": "“Exploring the Potential of Cyclic Peptidyl Antitumor Agents Derived from Natural Macrocyclic Peptide Phakellistatin 13” (J Med Chem, 2024)", "key": {"[1]": {"test": "Toxicity in Balb/c mouse assessed as effect on kidney at 6 mg/kg, iv measured after 14 days by H and E staining based analysis", "type": "organism-based", "conditions": "in vivo, 336 h, time 14 day"}, "[2]": {"test": "Downregulation of NOTCH3 expression level in human HepG2 cells assessed as fold change by KEGG enrichment analysis", "type": "functional"}, "[3]": {"test_system": "HepG2", "test": "Induction of morphological changes in human HepG2 cells assessed as decrease in cell adhesion at 40 uM measured after 12 to 24 hrs by fluorescence inverted microscopic analysis", "type": "functional, cell-based", "conditions": "time 12-24 hrs"}, "[4]": {"test_system": "HepG2", "test": "Induction of apoptosis in human HepG2 cells assessed as viable cells at 5 uM incubated for 48 hrs by annexin V-FITC/PI staining based flow cytometry analysis (reference value: 99.3%)", "type": "functional", "conditions": "read-out: Activity"}, "[5]": {"test_system": "HepG2", "test": "Induction of apoptosis in human HepG2 cells assessed as increase in number of apoptotic cells at 5 to 10 uM measured after 24 hrs by annexin V-mCherry staining based fluorescence microscopic analysis", "type": "functional, cell-based", "conditions": "dose 5-10 µM"}, "[6]": {"test_system": "HepG2", "test": "Induction of apoptosis in human HepG2 cells assessed as early apoptotic cells at 20 uM incubated for 48 hrs by annexin V-FITC/PI staining based flow cytometry analysis (reference value: 0.50%)", "type": "functional"}, "[7]": {"test_system": "HepG2", "test": "Induction of cell cycle arrest in human HepG2 cells assessed as accumulation of cells at S phase at 10 uM incubated for 24 hrs by PI staining based flow cytometry analysis (reference value: 39.6%)", "type": "functional"}, "[8]": {"test_system": "4T1", "test": "Antiproliferative activity against mouse 4T1 cells incubated for 48 hrs by MTT assay", "type": "functional, cell-based", "conditions": "4T1, 48 h"}, "[9]": {"test_system": "HepG2", "test": "Induction of apoptosis in human HepG2 cells assessed as increase in caspase 3 activity at 5 to 10 uM measured after 24 hrs by green-nuc staining based fluorescence microscopic analysis", "type": "functional, cell-based", "conditions": "dose 5-10 µM"}, "[10]": {"test_system": "HepG2", "test": "Induction of autophagy in human HepG2 cells assessed as increase in formation of autophagosomes at 5 to 10 uM incubated for 24 hrs by acridine orange staining based laser confocal microscopic analysis", "type": "functional, cell-based", "conditions": "dose 5-10 µM"}, "[11]": {"test_system": "HepG2", "test": "Induction of cell cycle arrest in human HepG2 cells assessed as accumulation of cells at S phase at 5 uM incubated for 48 hrs by PI staining based flow cytometry analysis (reference value: 39.6%)", "type": "functional"}, "[12]": {"test": "Upregulation of GADD45B expression level in human HepG2 cells assessed as fold change by KEGG enrichment analysis", "type": "functional"}, "[13]": {"test_system": "HepG2", "test": "Induction of cell cycle arrest in human HepG2 cells assessed as accumulation of cells at S phase at 10 uM incubated for 48 hrs by PI staining based flow cytometry analysis (reference value: 39.6%)", "type": "functional"}, "[14]": {"test_system": "HepG2", "test": "Downregulation of MDM2 level in human HepG2 cells at 5 to 20 uM measured after 48 hrs by Western blot analysis", "type": "functional, cell-based", "conditions": "dose 5-20 µM"}, "[15]": {"test_system": "HepG2", "test": "Induction of cell cycle arrest in human HepG2 cells assessed as accumulation of cells at >G2/M phase at 10 uM incubated for 48 hrs by PI staining based flow cytometry analysis (reference value: 28.0%)", "type": "functional"}, "[16]": {"test_system": "HepG2", "test": "Induction of cell cycle arrest in human HepG2 cells assessed as assessed as accumulation of cells at >G2/M phase at 10 uM incubated for 12 hrs by PI staining based flow cytometry analysis (reference value: 28.0%)", "type": "functional"}, "[17]": {"test": "Toxicity in Balb/c mouse assessed as effect on liver at 6 mg/kg, iv measured after 14 days by H and E staining based analysis", "type": "organism-based", "conditions": "in vivo, 336 h, time 14 day"}, "[18]": {"test_system": "4T1", "test": "Antitumor activity in mouse 4T1 cells xenografted in Balb/c mouse assessed as inhibition of tumor growth at 6 mg/kg, iv measured every two days for 14 days", "type": "functional, organism-based", "conditions": "time 14.0 day"}, "[19]": {"test_system": "Cell membrane", "test": "Induction of mitochondrial membrane potential loss in human HepG2 cells assessed as decrease in fluorescence at 10 uM measured after 48 hrs by Rhodamine 123 staining based flow cytometry (reference value: 66.8%)", "type": "cell membranes", "set-up": "scale not given: the % may be the effect or the level left"}, "[20]": {"test": "Upregulation of DUSP6 expression level in human HepG2 cells assessed as fold change by KEGG enrichment analysis", "type": "functional"}, "[21]": {"test_system": "Cell membrane", "test": "Induction of mitochondrial membrane potential loss in human HepG2 cells assessed as decrease in fluorescence at 10 uM by Rhodamine 123 staining based flow cytometry", "type": "cell membranes", "conditions": "time 12-48 hrs, TDE = time-dependent effect"}, "[22]": {"test": "Upregulation of ATF4 expression level in human HepG2 cells assessed as fold change by KEGG enrichment analysis", "type": "functional"}, "[23]": {"test_system": "Cell membrane", "test": "Induction of mitochondrial membrane potential loss in human HepG2 cells assessed as decrease in fluorescence at 10 uM measured after 24 hrs by Rhodamine 123 staining based flow cytometry (reference value: 66.8%)", "type": "cell membranes", "set-up": "scale not given: the % may be the effect or the level left"}, "[24]": {"test_system": "HepG2", "test": "Induction of cell cycle arrest in human HepG2 cells assessed as accumulation of cells at >G2/M phase at 5 uM incubated for 48 hrs by PI staining based flow cytometry analysis (reference value: 28.0%)", "type": "functional"}, "[25]": {"test_system": "HepG2", "test": "Induction of cell cycle arrest in human HepG2 cells assessed as accumulation of cells at <2N phase at 20 uM incubated for 48 hrs by PI staining based flow cytometry analysis (reference value: 0.027%)", "type": "functional"}, "[26]": {"test_system": "HepG2", "test": "Induction of cell cycle arrest in human HepG2 cells assessed as accumulation of cells at S phase at 20 uM incubated for 48 hrs by PI staining based flow cytometry analysis (reference value: 39.6%)", "type": "functional"}, "[27]": {"test_system": "HepG2", "test": "Induction of apoptosis in human HepG2 cells assessed as viable cells at 10 uM incubated for 48 hrs by annexin V-FITC/PI staining based flow cytometry analysis (reference value: 99.3%)", "type": "functional", "conditions": "read-out: Activity"}, "[28]": {"test": "Toxicity in Balb/c mouse assessed as effect on spleen at 6 mg/kg, iv measured after 14 days by H and E staining based analysis", "type": "organism-based", "conditions": "in vivo, 336 h, time 14 day"}, "[29]": {"test_system": "HepG2", "test": "Induction of cell cycle arrest in human HepG2 cells assessed as accumulation of cells at <2N phase at 10 uM incubated for 24 hrs by PI staining based flow cytometry analysis (reference value: 0.027%)", "type": "functional"}, "[30]": {"test_system": "Cell membrane", "test": "Induction of mitochondrial membrane potential loss in human HepG2 cells assessed as decrease in fluorescence at 10 uM measured after 12 hrs by Rhodamine 123 staining based flow cytometry (reference value: 66.8%)", "type": "cell membranes", "set-up": "scale not given: the % may be the effect or the level left"}, "[31]": {"test_system": "Cell membrane", "test": "Induction of mitochondrial membrane potential loss in human HepG2 cells assessed as decrease in fluorescence measured after 48 hrs by Rhodamine 123 staining based flow cytometry", "type": "cell membranes", "conditions": "dose 5-20 µM"}, "[32]": {"test_system": "HepG2", "test": "Induction of apoptosis in human HepG2 cells assessed as increase in intracellular calcium level at 10 uM measured after 24 hrs by fluo-3AM dye based flow cytometry analysis", "type": "functional, cell-based"}, "[33]": {"test_system": "HepG2", "test": "Induction of cell cycle arrest in human HepG2 cells assessed as accumulation of cells at 2N phase at 10 uM incubated for 48 hrs by PI staining based flow cytometry analysis (reference value: 26.0%)", "type": "functional"}, "[34]": {"test_system": "HepG2", "test": "Induction of cell cycle arrest in human HepG2 cells assessed as accumulation of cells at <2N phase at 10 uM incubated for 12 hrs by PI staining based flow cytometry analysis (reference value: 0.027%)", "type": "functional"}, "[35]": {"test_system": "HepG2", "test": "Induction of apoptosis in human HepG2 cells assessed as late apoptotic cells at 5 uM incubated for 48 hrs by annexin V-FITC/PI staining based flow cytometry analysis (reference value: 0.16%)", "type": "functional"}}, "note": "Activity calls are given as the source filed them. The rule behind the calls is not given here.", "data": [{"compound": "CC(C)C[C@H]1NC(=O)[C@H]([C@@H](C)OCc2ccccc2)NC(=O)[C@H]2CCCN2C(=O)CN2C(=O)c3ccccc3[C@@]2(O)CN(Cc2ccccc2)C(=O)[C@H](Cc2ccccc2)NC(=O)[C@H]2CCCN2C(=O)[C@H](Cc2c[nH]c3ccccc23)NC1=O", "values": [{"measurement": "Activity", "setting": "[1]", "result": "Non-Toxic"}, {"measurement": "fold change (FC)", "setting": "[2]", "result": -1.52}, {"measurement": "Activity", "setting": "[3]", "result": "Active"}, {"measurement": "viability at 5 µM", "setting": "[4]", "result": 80.8, "unit": "%"}, {"measurement": "Activity", "setting": "[5]", "result": "Active"}, {"measurement": "Activity", "setting": "[6]", "result": 41.1, "unit": "%"}, {"measurement": "Activity", "setting": "[7]", "result": 14.3, "unit": "%"}, {"measurement": "IC50", "setting": "[8]", "result": 38.5, "unit": "µM"}, {"measurement": "Activity", "setting": "[9]", "result": "Active"}, {"measurement": "Activity", "setting": "[10]", "result": "Active"}, {"measurement": "Activity", "setting": "[11]", "result": 12.3, "unit": "%"}, {"measurement": "fold change (FC)", "setting": "[12]", "result": 1.146}, {"measurement": "Activity", "setting": "[13]", "result": 23.3, "unit": "%"}, {"measurement": "Activity", "setting": "[14]", "result": "Active"}, {"measurement": "Activity", "setting": "[15]", "result": 0, "unit": "%"}, {"measurement": "Activity", "setting": "[16]", "result": 4.68, "unit": "%"}, {"measurement": "Activity", "setting": "[17]", "result": "Non-Toxic"}, {"measurement": "Activity", "setting": "[18]", "result": "Active"}, {"measurement": "Activity", "setting": "[19]", "result": 28.8, "unit": "%"}, {"measurement": "fold change (FC)", "setting": "[20]", "result": 1.112}, {"measurement": "Activity", "setting": "[21]", "result": "Tde"}, {"measurement": "fold change (FC)", "setting": "[22]", "result": 1.43}, {"measurement": "Activity", "setting": "[23]", "result": 45.4, "unit": "%"}, {"measurement": "Activity", "setting": "[24]", "result": 2.76, "unit": "%"}, {"measurement": "Activity", "setting": "[25]", "result": 28.1, "unit": "%"}, {"measurement": "Activity", "setting": "[26]", "result": 11.7, "unit": "%"}, {"measurement": "viability at 10 µM", "setting": "[27]", "result": 68.1, "unit": "%"}, {"measurement": "Activity", "setting": "[28]", "result": "Non-Toxic"}, {"measurement": "Activity", "setting": "[29]", "result": 35.9, "unit": "%"}, {"measurement": "Activity", "setting": "[30]", "result": 55.6, "unit": "%"}, {"measurement": "Activity", "setting": "[31]", "result": "Dose-Dependent Effect"}, {"measurement": "Activity", "setting": "[32]", "result": "Active"}, {"measurement": "Activity", "setting": "[33]", "result": 33.5, "unit": "%"}, {"measurement": "Activity", "setting": "[34]", "result": 36.2, "unit": "%"}, {"measurement": "Activity", "setting": "[35]", "result": 2.4, "unit": "%"}]}]}
